# Measured values from patent publication US11076595B2, “1-(n,n-disubstituted carbamoyl) 4-(substituted sulfonyl)triazolin-5-one derivative, 4-(n,n-disubstituted carbamoyl) 1-(substituted sulfonyl)triazolin-5-one derivative, and herbicide containing said derivative as active ingredient” (HOKKO CHEMICAL INDUSTRY CO., LTD., priority 2017, dated 2021).
# Columns and labels:
# Type in all cases: in vivo
# Echinochloa crus-galli [1] = assay: Test Example 11: herbicidal effect test by soil treatment in paddy field; conditions: 120 g/10a active ingredient, 14 days after treatment
# Method in brief: (§1)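 Weed suppression rate (%) was calculated as (1 − mean treated dry weight / mean untreated dry weight) × 100 at 14 days after treatment, two replicates per plot. Seeds were sown at 0–1 cm in flooded (about 3 cm) puddled paddy soil and treated immediately at 120 g active ingredient per 10 are.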
# Lindernia pyxidaria [2] = assay: as above; conditions: 120 g/10a active ingredient, 14 days after treatment
# Method in brief: as §1
# Monochoria vaginalis [3] = assay: as above; conditions: 120 g/10a active ingredient, 14 days after treatment
# Method in brief: as §1
# Scirpus juncoides [4] = assay: as above; conditions: 120 g/10a active ingredient, 14 days after treatment
# Method in brief: as §1
# Echinochloa crus-galli [5] = assay: Test Example 13: herbicidal effect test by soil treatment in upland field; conditions: 120 g/10a, 14 days after treatment
# Protocol: (§2) A pot having a size of 36 cm^2 was filled with field soil (alluvial soil) and after mixing the soil of the surface layer of 1 cm with 20 grains of each weed seed of crabgrass, Echinochloa crus-galli, Chenopodium album and Amaranthus viridis, the surface layer was pressed lightly. One day after the sowing, an emulsifiable concentrate prepared according to Formulation Example 15 by using the compound shown in Table 11 below was diluted with water, and the water-diluted formulation was sprayed on the soil surface at a ratio of 100 liter per 10 are. The application rate of the active ingredient, by conversion, corresponded to 120 g per 10 are. Fourteen Days after the formulation treatment, the herbicidal effect was evaluated by the same criteria as in Test Example 11.
# Chenopodium album = assay: as above; conditions: 120 g/10a, 14 days after treatment
# Protocol: as §2
# Amaranthus viridis = assay: as above; conditions: 120 g/10a, 14 days after treatment
# Protocol: as §2
# crabgrass = assay: as above; conditions: 120 g/10a, 14 days after treatment
# Protocol: as §2
# Echinochloa crus-galli [6] = assay: Test Example 12: herbicidal effect test by treatment during growing period in paddy field; conditions: 120 g/10a; treatment seven days after sowing in flooded paddy pot; assessed 14 days after treatment
# Method in brief: (§3)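 Puddled, fertilized paddy soil in Wagner pots, sown with 30 seeds per species at 0–1 cm and flooded to ~3 cm in a glass greenhouse. Emulsifiable concentrate dripped into water 7 days after sowing at 120 g a.i. per 10 are. Suppression % from dry weight vs untreated, 14 days post-treatment, two replicates.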
# Lindernia pyxidaria [7] = assay: as above; conditions: 120 g/10a; treatment seven days after sowing in flooded paddy pot; assessed 14 days after treatment
# Method in brief: as §3
# Monochoria vaginalis [8] = assay: as above; conditions: 120 g/10a; treatment seven days after sowing in flooded paddy pot; assessed 14 days after treatment
# Method in brief: as §3
# Scirpus juncoides [9] = assay: as above; conditions: 120 g/10a; treatment seven days after sowing in flooded paddy pot; assessed 14 days after treatment
# Method in brief: as §3
structure (smiles),measurement,setting,value
CC(C)N(C(=O)n1cnn(S(=O)(=O)c2ccccc2F)c1=O)c1c(F)cc(F)cc1F [Compound 11-406],Weed suppression rate (%) Echinochloa crus-galli,Echinochloa crus-galli [1],100%
same,Weed suppression rate (%) Lindemia pyxidaria,Lindernia pyxidaria [2],100%
same,Weed suppression rate (%) Monochoria vaginalis,Monochoria vaginalis [3],80%
same,Weed suppression rate (%) Scirpus juncoides,Scirpus juncoides [4],80%
same,"herbicidal effect, Echinochloa crus-galli",Echinochloa crus-galli [5],100%
same,"herbicidal effect, Chenopodium album",Chenopodium album,30%
same,"herbicidal effect, Amaranthus viridis",Amaranthus viridis,30%
same,"herbicidal effect, Crabgrass",crabgrass,90%
same,Weed suppression rate (%) Echinochloa crus-galli,Echinochloa crus-galli [6],100%
same,Weed suppression rate (%) Lindemia pyxidaria,Lindernia pyxidaria [7],70%
same,Weed suppression rate (%) Monochoria vaginalis,Monochoria vaginalis [8],80%
same,Weed suppression rate (%) Scirpus juncoides,Scirpus juncoides [9],80%
CC(C)N(C(=O)n1cnn(S(=O)(=O)c2ccc(F)cc2)c1=O)c1c(F)cccc1F [Compound 11-477],Weed suppression rate (%) Echinochloa crus-galli,Echinochloa crus-galli [1],100%
same,Weed suppression rate (%) Lindemia pyxidaria,Lindernia pyxidaria [2],90%
same,Weed suppression rate (%) Monochoria vaginalis,Monochoria vaginalis [3],70%
same,Weed suppression rate (%) Scirpus juncoides,Scirpus juncoides [4],100%
same,"herbicidal effect, Echinochloa crus-galli",Echinochloa crus-galli [5],100%
same,"herbicidal effect, Chenopodium album",Chenopodium album,70%
same,"herbicidal effect, Amaranthus viridis",Amaranthus viridis,70%
same,"herbicidal effect, Crabgrass",crabgrass,100%
same,Weed suppression rate (%) Echinochloa crus-galli,Echinochloa crus-galli [6],100%
same,Weed suppression rate (%) Lindemia pyxidaria,Lindernia pyxidaria [7],60%
same,Weed suppression rate (%) Monochoria vaginalis,Monochoria vaginalis [8],70%
same,Weed suppression rate (%) Scirpus juncoides,Scirpus juncoides [9],70%
Cc1cc(F)ccc1N(C(=O)n1cnn(S(=O)(=O)c2ccc(F)cc2)c1=O)C(C)C [Compound 11-488],Weed suppression rate (%) Echinochloa crus-galli,Echinochloa crus-galli [1],100%
same,Weed suppression rate (%) Lindemia pyxidaria,Lindernia pyxidaria [2],100%
same,Weed suppression rate (%) Monochoria vaginalis,Monochoria vaginalis [3],80%
same,Weed suppression rate (%) Scirpus juncoides,Scirpus juncoides [4],100%
same,"herbicidal effect, Echinochloa crus-galli",Echinochloa crus-galli [5],60%
same,"herbicidal effect, Chenopodium album",Chenopodium album,60%
same,"herbicidal effect, Amaranthus viridis",Amaranthus viridis,60%
same,"herbicidal effect, Crabgrass",crabgrass,70%
same,Weed suppression rate (%) Echinochloa crus-galli,Echinochloa crus-galli [6],100%
same,Weed suppression rate (%) Lindemia pyxidaria,Lindernia pyxidaria [7],100%
same,Weed suppression rate (%) Monochoria vaginalis,Monochoria vaginalis [8],100%
same,Weed suppression rate (%) Scirpus juncoides,Scirpus juncoides [9],80%
CCN(CC)C(=O)n1cnn(S(=O)(=O)c2cccc(Cl)c2)c1=O [Compound 11-538],Weed suppression rate (%) Echinochloa crus-galli,Echinochloa crus-galli [1],50%
same,Weed suppression rate (%) Lindemia pyxidaria,Lindernia pyxidaria [2],40%
same,Weed suppression rate (%) Monochoria vaginalis,Monochoria vaginalis [3],40%
same,Weed suppression rate (%) Scirpus juncoides,Scirpus juncoides [4],40%
same,"herbicidal effect, Echinochloa crus-galli",Echinochloa crus-galli [5],80%
same,"herbicidal effect, Chenopodium album",Chenopodium album,40%
same,"herbicidal effect, Amaranthus viridis",Amaranthus viridis,40%
same,"herbicidal effect, Crabgrass",crabgrass,60%
same,Weed suppression rate (%) Echinochloa crus-galli,Echinochloa crus-galli [6],70%
same,Weed suppression rate (%) Lindemia pyxidaria,Lindernia pyxidaria [7],70%
same,Weed suppression rate (%) Monochoria vaginalis,Monochoria vaginalis [8],70%
same,Weed suppression rate (%) Scirpus juncoides,Scirpus juncoides [9],70%
CC(C)N(C(=O)n1cnn(S(=O)(=O)c2cccc(Cl)c2)c1=O)c1ccc(F)cc1F [Compound 11-550],Weed suppression rate (%) Echinochloa crus-galli,Echinochloa crus-galli [1],90%
same,Weed suppression rate (%) Lindemia pyxidaria,Lindernia pyxidaria [2],90%
same,Weed suppression rate (%) Monochoria vaginalis,Monochoria vaginalis [3],80%
same,Weed suppression rate (%) Scirpus juncoides,Scirpus juncoides [4],80%
same,"herbicidal effect, Echinochloa crus-galli",Echinochloa crus-galli [5],90%
same,"herbicidal effect, Chenopodium album",Chenopodium album,0%
same,"herbicidal effect, Amaranthus viridis",Amaranthus viridis,0%
same,"herbicidal effect, Crabgrass",crabgrass,90%
same,Weed suppression rate (%) Echinochloa crus-galli,Echinochloa crus-galli [6],70%
same,Weed suppression rate (%) Lindemia pyxidaria,Lindernia pyxidaria [7],90%
same,Weed suppression rate (%) Monochoria vaginalis,Monochoria vaginalis [8],90%
same,Weed suppression rate (%) Scirpus juncoides,Scirpus juncoides [9],80%
CC(C)N(C(=O)n1cnn(S(=O)(=O)c2ccc(Cl)cc2)c1=O)c1ccc(F)cc1F [Compound 11-588],Weed suppression rate (%) Echinochloa crus-galli,Echinochloa crus-galli [1],90%
same,Weed suppression rate (%) Lindemia pyxidaria,Lindernia pyxidaria [2],90%
same,Weed suppression rate (%) Monochoria vaginalis,Monochoria vaginalis [3],90%
same,Weed suppression rate (%) Scirpus juncoides,Scirpus juncoides [4],90%
same,"herbicidal effect, Echinochloa crus-galli",Echinochloa crus-galli [5],80%
same,"herbicidal effect, Chenopodium album",Chenopodium album,80%
same,"herbicidal effect, Amaranthus viridis",Amaranthus viridis,40%
same,"herbicidal effect, Crabgrass",crabgrass,60%
same,Weed suppression rate (%) Echinochloa crus-galli,Echinochloa crus-galli [6],80%
same,Weed suppression rate (%) Lindemia pyxidaria,Lindernia pyxidaria [7],90%
same,Weed suppression rate (%) Monochoria vaginalis,Monochoria vaginalis [8],90%
same,Weed suppression rate (%) Scirpus juncoides,Scirpus juncoides [9],70%
CC(C)N(C(=O)n1cnn(S(=O)(=O)c2ccc(Br)cc2)c1=O)c1ccc(F)cc1F [Compound 11-616],Weed suppression rate (%) Echinochloa crus-galli,Echinochloa crus-galli [1],90%
same,Weed suppression rate (%) Lindemia pyxidaria,Lindernia pyxidaria [2],90%
same,Weed suppression rate (%) Monochoria vaginalis,Monochoria vaginalis [3],90%
same,Weed suppression rate (%) Scirpus juncoides,Scirpus juncoides [4],90%
same,"herbicidal effect, Echinochloa crus-galli",Echinochloa crus-galli [5],80%
same,"herbicidal effect, Chenopodium album",Chenopodium album,80%
same,"herbicidal effect, Amaranthus viridis",Amaranthus viridis,80%
same,"herbicidal effect, Crabgrass",crabgrass,40%
same,Weed suppression rate (%) Echinochloa crus-galli,Echinochloa crus-galli [6],50%
same,Weed suppression rate (%) Lindemia pyxidaria,Lindernia pyxidaria [7],80%
same,Weed suppression rate (%) Monochoria vaginalis,Monochoria vaginalis [8],80%
same,Weed suppression rate (%) Scirpus juncoides,Scirpus juncoides [9],60%
CCN(CC)C(=O)n1cnn(S(=O)(=O)c2ccccc2C)c1=O [Compound 11-622],Weed suppression rate (%) Echinochloa crus-galli,Echinochloa crus-galli [1],90%
same,Weed suppression rate (%) Lindemia pyxidaria,Lindernia pyxidaria [2],40%
same,Weed suppression rate (%) Monochoria vaginalis,Monochoria vaginalis [3],0%
same,Weed suppression rate (%) Scirpus juncoides,Scirpus juncoides [4],40%
same,"herbicidal effect, Echinochloa crus-galli",Echinochloa crus-galli [5],90%
same,"herbicidal effect, Chenopodium album",Chenopodium album,40%
same,"herbicidal effect, Amaranthus viridis",Amaranthus viridis,40%
same,"herbicidal effect, Crabgrass",crabgrass,80%
same,Weed suppression rate (%) Echinochloa crus-galli,Echinochloa crus-galli [6],90%
same,Weed suppression rate (%) Lindemia pyxidaria,Lindernia pyxidaria [7],50%
same,Weed suppression rate (%) Monochoria vaginalis,Monochoria vaginalis [8],50%
same,Weed suppression rate (%) Scirpus juncoides,Scirpus juncoides [9],50%
CCc1ccc(S(=O)(=O)n2ncn(C(=O)N(CC)CC)c2=O)cc1 [Compound 11-665],Weed suppression rate (%) Echinochloa crus-galli,Echinochloa crus-galli [1],80%
same,Weed suppression rate (%) Lindemia pyxidaria,Lindernia pyxidaria [2],40%
same,Weed suppression rate (%) Monochoria vaginalis,Monochoria vaginalis [3],40%
same,Weed suppression rate (%) Scirpus juncoides,Scirpus juncoides [4],40%
same,"herbicidal effect, Echinochloa crus-galli",Echinochloa crus-galli [5],80%
same,"herbicidal effect, Chenopodium album",Chenopodium album,0%
same,"herbicidal effect, Amaranthus viridis",Amaranthus viridis,0%
same,"herbicidal effect, Crabgrass",crabgrass,80%
same,Weed suppression rate (%) Echinochloa crus-galli,Echinochloa crus-galli [6],90%
same,Weed suppression rate (%) Lindemia pyxidaria,Lindernia pyxidaria [7],60%
same,Weed suppression rate (%) Monochoria vaginalis,Monochoria vaginalis [8],60%
same,Weed suppression rate (%) Scirpus juncoides,Scirpus juncoides [9],60%
CC(C)N(C(=O)n1cnn(S(=O)(=O)c2ccc(C(C)(C)C)cc2)c1=O)c1ccc(F)cc1F [Compound 11-682],Weed suppression rate (%) Echinochloa crus-galli,Echinochloa crus-galli [1],100%
same,Weed suppression rate (%) Lindemia pyxidaria,Lindernia pyxidaria [2],90%
same,Weed suppression rate (%) Monochoria vaginalis,Monochoria vaginalis [3],90%
same,Weed suppression rate (%) Scirpus juncoides,Scirpus juncoides [4],90%
same,"herbicidal effect, Echinochloa crus-galli",Echinochloa crus-galli [5],90%
same,"herbicidal effect, Chenopodium album",Chenopodium album,40%
same,"herbicidal effect, Amaranthus viridis",Amaranthus viridis,40%
same,"herbicidal effect, Crabgrass",crabgrass,80%
same,Weed suppression rate (%) Echinochloa crus-galli,Echinochloa crus-galli [6],90%
same,Weed suppression rate (%) Lindemia pyxidaria,Lindernia pyxidaria [7],90%
same,Weed suppression rate (%) Monochoria vaginalis,Monochoria vaginalis [8],90%
same,Weed suppression rate (%) Scirpus juncoides,Scirpus juncoides [9],80%
CCN(CC)C(=O)n1cnn(S(=O)(=O)c2ccccc2C(F)(F)F)c1=O [Compound 11-710],Weed suppression rate (%) Echinochloa crus-galli,Echinochloa crus-galli [1],70%
same,Weed suppression rate (%) Lindemia pyxidaria,Lindernia pyxidaria [2],40%
same,Weed suppression rate (%) Monochoria vaginalis,Monochoria vaginalis [3],40%
same,Weed suppression rate (%) Scirpus juncoides,Scirpus juncoides [4],40%
same,"herbicidal effect, Echinochloa crus-galli",Echinochloa crus-galli [5],100%
same,"herbicidal effect, Chenopodium album",Chenopodium album,60%
same,"herbicidal effect, Amaranthus viridis",Amaranthus viridis,40%
same,"herbicidal effect, Crabgrass",crabgrass,80%
same,Weed suppression rate (%) Echinochloa crus-galli,Echinochloa crus-galli [6],80%
same,Weed suppression rate (%) Lindemia pyxidaria,Lindernia pyxidaria [7],40%
same,Weed suppression rate (%) Monochoria vaginalis,Monochoria vaginalis [8],40%
same,Weed suppression rate (%) Scirpus juncoides,Scirpus juncoides [9],40%
CC(C)N(C(=O)n1cnn(S(=O)(=O)c2ccccc2C(F)(F)F)c1=O)c1ccc(F)cc1F [Compound 11-711],Weed suppression rate (%) Echinochloa crus-galli,Echinochloa crus-galli [1],90%
same,Weed suppression rate (%) Lindemia pyxidaria,Lindernia pyxidaria [2],90%
same,Weed suppression rate (%) Monochoria vaginalis,Monochoria vaginalis [3],90%
same,Weed suppression rate (%) Scirpus juncoides,Scirpus juncoides [4],90%
same,"herbicidal effect, Echinochloa crus-galli",Echinochloa crus-galli [5],100%
same,"herbicidal effect, Chenopodium album",Chenopodium album,50%
same,"herbicidal effect, Amaranthus viridis",Amaranthus viridis,50%
same,"herbicidal effect, Crabgrass",crabgrass,90%
same,Weed suppression rate (%) Echinochloa crus-galli,Echinochloa crus-galli [6],60%
same,Weed suppression rate (%) Lindemia pyxidaria,Lindernia pyxidaria [7],70%
same,Weed suppression rate (%) Monochoria vaginalis,Monochoria vaginalis [8],70%
same,Weed suppression rate (%) Scirpus juncoides,Scirpus juncoides [9],60%
CC(C)N(C(=O)n1cnn(S(=O)(=O)c2c(F)c(F)c(F)c(F)c2F)c1=O)c1ccc(F)cc1Cl [Compound 11-818],Weed suppression rate (%) Echinochloa crus-galli,Echinochloa crus-galli [1],100%
same,Weed suppression rate (%) Lindemia pyxidaria,Lindernia pyxidaria [2],100%
same,Weed suppression rate (%) Monochoria vaginalis,Monochoria vaginalis [3],100%
same,Weed suppression rate (%) Scirpus juncoides,Scirpus juncoides [4],100%
same,"herbicidal effect, Echinochloa crus-galli",Echinochloa crus-galli [5],100%
same,"herbicidal effect, Chenopodium album",Chenopodium album,60%
same,"herbicidal effect, Amaranthus viridis",Amaranthus viridis,60%
same,"herbicidal effect, Crabgrass",crabgrass,100%
same,Weed suppression rate (%) Echinochloa crus-galli,Echinochloa crus-galli [6],100%
same,Weed suppression rate (%) Lindemia pyxidaria,Lindernia pyxidaria [7],80%
same,Weed suppression rate (%) Monochoria vaginalis,Monochoria vaginalis [8],100%
same,Weed suppression rate (%) Scirpus juncoides,Scirpus juncoides [9],100%
